In US6849602B1 (The Regents of the University of California, priority 1996, dated 2005):
Non-standard residues stand in square brackets, D forms with d. No end group written: not given here.

Key:
NS20Y cells = experiment: Neural cell death (trypan blue) in NS20Y cells; type: cell-based; details: 8 ng/ml, 2 days in 0.5% fetal bovine serum
Description: Media is removed and 0.2% trypan blue in PBS is added to each well. Dead cells stain blue with the trypan blue dye and are scored as a percentage of the total on an inverted microscope, counting 400 cells in four areas of each well. The average error of duplicates is ±5%.

Selzer rat model = experiment: Hyperalgesia (hot plate withdrawal) in Selzer model rats; type: in vivo; details: intravenous at a dose of 200 mg/kg
Description: After induction of hyperalgesia by ligation of the sciatic nerve in one hind limb, the animals were injected with Prosaptide TX 14(A). Relief was measured using the hot plate withdrawal technique comparing ligated vs. unligated hind foot withdrawal. […] The relief lasted for up to 48 hours post injection.

STZ-diabetic rats = experiment: Nerve function, thermal response and body weight in STZ-diabetic rats; type: in vivo, rat; details: for decline in SNCV between weeks 4 and 8 of diabetes: 200 μg/kg i.p. thrice weekly beginning after 4 weeks of diabetes
Description: Control and STZ-diabetic rats were treated using 1000 μg prosaptide TX 14(A) per kg body weights i.p., three times per week for 8 weeks.
In this EXAMPLE, control and STZ-diabetic rats were treated with prosaptide TX 14(A) at doses of 20 μg/kg, 200 μg/kg, and 1000 μg/kg body weight, i.p., three times per week for 8 weeks. The rats were weighed at the beginning, midpoint and the end of the experiment and motor nerve conduction (MNCV) and sensor nerve conduction velocity (SNCV) measurements were taken at the three time points.
These deficits were attenuated by thrice weekly treatment (1 mg/kg i.p. for 8 weeks) with prosaptide (58.1±1.2 and 54.9±1.3 respectively).
This EXAMPLE was designed to determine whether prosaptide could also reverse conduction deficits and hyperalgesia in the formalin test pain model once these disorders are established in diabetic rats. SNCV was measured before onset of diabetes and 4-8 weeks later in groups of control, untreated diabetic and prosaptide-treated (200 μg/kg i.p. thrice weekly for the last 4 weeks) diabetic rats. Flinch responses to injection of formalin (50 μl or 0.5% or 5.0% solution) were followed for 60 min in control, 8 week untreated diabetic, 8 week diabetic treated with prosaptide (200 μg/kg i.p.) 30 min pre-test and 8 week diabetic treated with prosaptide (200 μg/kg i.p.) thrice weekly for the last 4 weeks (the last treatment being 48-72 hr pre-test).

[1] = 1 mg/kg i.p. thrice weekly for 8 weeks, diabetic rats

## T[dA]LIDNNATEEILY [SEQ ID NO:2]
NS20Y cells
  number of trypan blue-positive (dead) cells: substantially reduces the number of trypan blue-positive (dead) cells
Selzer rat model
  duration of relief post injection: up to 48 hours
  relief of hyperalgesia: nearly complete relief of hyperalgesia
  time after injection to relief: ≤ 3 h
STZ-diabetic rats; 20 μg treatment group
  thermal response latency: intermediate response
STZ-diabetic rats; listed as prosaptide
  decline in SNCV between weeks 4 and 8 of diabetes: prevents any further decline in SNCV
STZ-diabetic rats; listed as prosaptide TX 14(A)
  decline in SNCV between weeks 4 and 8 of diabetes: halts progressive slowing of sensory conduction
STZ-diabetic rats; 1000 μg per kg i.p., three times per week for 8 weeks
  thermal hypoalgesia: prevented hypoalgesia
STZ-diabetic rats; 1000 μg per kg i.p., three times per week for 8 weeks (EXAMPLE XIV)
  hyperglycemia and loss of body weight: did not prevent hyperglycemia or loss of body weight
STZ-diabetic rats; [1]
  MNCV: 58.1±1.2 m/s
  SNCV: 54.9±1.3 m/s
  thermal response latency (thermal hypoalgesia): 8.8 ± 0.6 s
STZ-diabetic rats; 20, 200 and 1000 μg/kg i.p., three times per week for 8 weeks
  weight loss compared to diabetic animals: significant decreases in weight loss in a dose dependent manner
STZ-diabetic rats; 200 and 1000 μg
  thermal response latency: restored to control non-diabetic levels
STZ-diabetic rats; 200 and 1000 μg/kg, compared to untreated diabetic group and 20 μg/kg
  motor nerve conduction velocities: enhanced motor nerve conduction velocities
STZ-diabetic rats; all treated groups (20, 200, 1000 μg/kg)
  loss of sensory nerve conduction velocity: slower loss of sensory nerve conduction velocity
STZ-diabetic rats; time course study, thrice weekly 20, 200 or 1000 μg i.p.
  thermal hypoalgesia and decline in nerve conduction velocities during 8 weeks of diabetes: attenuated by prosaptide in a dose-dependent manner
